# Results: patent US20230330134A1, “METHOD OF PROPHYLAXIS OF CORONAVIRUS AND/OR RESPIRATORY SYNCYTIAL VIRUS INFECTION” (Starpharma Pty Ltd., priority 2020, published 2023)
# Where “and” joins values, the source holds several entries; their conditions need not be identical. Equal values may be shown once. Read-outs that look alike come from different tables or passages of the source.
# Key:
# [1] = test system: SARS-CoV-1 (Urbani) Spike-pseudotyped GFP reporter lentiviral particles; assay type: cell-based
# [2] = test system: SARS-CoV-2 (2019-nCoV/USA-WA1/2020); assay: Virucidal evaluation with neutralization through sucrose cushion, plaque assay; assay type: cell-based; conditions: for Reduction vs. Virus Control (%) / Reduction vs. Virus Control (Log10± SD): 10 mg/mL
# [3] = test system: SARS-CoV-2 (2019-nCoV/USA-WAl/2020 strain); assay type: in vivo, human ACE2 transgenic mice K18-hACE2; conditions: 1%, 3% or 5% SPL7013 in PBS intranasally for 7 days (0.5, 1.5, 2.5 mg daily); significant vs control at the highest dose
# [4] = test system: SARS-CoV-2 hCoV-19/Australia/VIC01/2020; assay: microbe, parasite or virus in culture; assay type: cell-based
# MRC-5 cells = conditions: no virus
# [5] = test system: SARS-CoV-2 (Wuhan-Hu-1) Spike-pseudotyped GFP reporter lentiviral particles; assay type: cell-based; conditions: 10 and 30 mg/mL, added 1 hour prior
# [6] = test system: Coronavirus strain 229E (ATCC #VR-740); conditions: final 28.76 mg/mL; for CPE in four replicates, Test: MRC-5
# [7] = test system: Human Respiratory Syncytial Virus; assay: Antiviral pre-treatment and post-treatment plaque tests (RSV); assay type: cell-based, Human respiratory syncytial virus (HRSV); conditions: Hep-2 cells
# Description: The concentrations of the Test Product were prepared using approximately 1:3 dilutions from the starting concentration determined following the cytotoxicity test.
# The host cell culture was washed with PBS, and 1.0 mL aliquots of test product dilutions added to the cells. Cells were then incubated for 1 hour ± 15 minutes for equilibration. After the incubation, 1.0 mL aliquots of virus was added to the wells and incubated for 1 hour ± 15 minutes for virus adsorption. Following incubation, the mixture was removed and replaced with TM. The plates were then incubated in a CO2 incubator. The plates were incubated until viral plaques in the virus control could be microscopically registered (approximately 5-10 days).
# Fixed cells were stained using Crystal Violet stain. Unstained zones of cell lysis (viral plaques) were counted.
# The concentrations of the test product were prepared using approximately 1:3 dilutions from the starting concentration determined following the cytotoxicity test.
# The host cell culture was washed with PBS, and 1.0 mL aliquots of virus added to the wells and incubated for 1 hour ± 15 minutes for virus adsorption. After incubation, virus inoculum was removed and replaced with aliquots of the test product concentrations in TM. The plates were then incubated in a CO2 incubator. The plates were then incubated until viral plaques in the virus control can be microscopically registered (approximately 5-10 days).
# For the cell culture control, intact cell culture monolayers were used as the control of cell viability. The GM was replaced by TM in the cell culture control wells. […] Fixed cells were stained using Crystal Violet stain. Unstained zones of cell lysis (viral plaques) were counted.
# Assessment of antiviral properties: The antiviral properties EC50 and/or EC90 was determined using non-linear regression analysis, GraphPad Prism 5.0 software.
# [8] = test system: SARS-CoV-2 (hCoV-19/Australia/VIC01/2020); conditions: mixed with virus for 1 hour prior to infection of Vero E6 cells; n=1
# Vero cells = conditions: no virus
# [9] = 10^4 pfu/mL, 5 sec incubation, 96 hours post-infection, Vero E6
# [10] = 10^4 pfu/mL, 10 sec incubation, 96 hours post-infection, Vero E6
# [11] = 10^4 pfu/mL, 30 sec incubation, 16 hours post-infection, Vero E6
# [12] = 10^4 pfu/mL, 30 sec incubation, 96 hours post-infection, Vero E6
# [13] = 10^4 pfu/mL, 1 min incubation, 16 hours post-infection, Vero E6
# [14] = 10^4 pfu/mL, 1 min incubation, 96 hours post-infection, Vero E6
# [15] = 10^4 pfu/mL, 5 min incubation, 16 hours post-infection, Vero E6
# [16] = 10^4 pfu/mL, 10 min incubation, 96 hours post-infection, Vero E6
# [17] = 10^4 pfu/mL, 15 min incubation, 16 hours post-infection, Vero E6
# [18] = 10^4 pfu/mL, 15 min incubation, 96 hours post-infection, Vero E6
# [19] = 10^5 pfu/mL, 5 sec incubation, 96 hours post-infection, Vero E6
# [20] = 10^5 pfu/mL, 10 sec incubation, 96 hours post-infection, Vero E6
# [21] = 10^5 pfu/mL, 30 sec incubation, 16 hours post-infection, Vero E6
# [22] = 10^5 pfu/mL, 30 sec incubation, 96 hours post-infection, Vero E6
# [23] = 10^5 pfu/mL, 1 min incubation, 16 hours post-infection, Vero E6
# [24] = 10^5 pfu/mL, 1 min incubation, 96 hours post-infection, Vero E6
# [25] = 10^5 pfu/mL, 5 min incubation, 16 hours post-infection, Vero E6
# [26] = 10^5 pfu/mL, 10 min incubation, 96 hours post-infection, Vero E6
# [27] = 10^5 pfu/mL, 15 min incubation, 16 hours post-infection, Vero E6
# [28] = 10^5 pfu/mL, 15 min incubation, 96 hours post-infection, Vero E6
# [29] = 10^6 pfu/mL, 5 sec incubation, 96 hours post-infection, Vero E6
# [30] = 10^6 pfu/mL, 10 sec incubation, 96 hours post-infection, Vero E6
# [31] = 10^6 pfu/mL, 30 sec incubation, 96 hours post-infection, Vero E6
# [32] = 10^6 pfu/mL, 1 min incubation, 96 hours post-infection, Vero E6
# [33] = 10^6 pfu/mL, 10 min incubation, 96 hours post-infection, Vero E6
# [34] = 10^6 pfu/mL, 15 min incubation, 96 hours post-infection, Vero E6
substance,measurement,setting,value
astodrimer sodium [SPL7013],"binding/infection of Vero E6 cells by spike-pseudotyped lentivirus (GFP-positive cells, FACS)",[1],potently inhibited
same,Reduction vs. Virus Control (%),[2]; [9],-35.936%
same,Reduction vs. Virus Control (Log10± SD),[2]; [9],-0.13 ± 0.21 Log10
same,Reduction vs. Virus Control (%),[2]; [10],14.230%
same,Reduction vs. Virus Control (Log10± SD),[2]; [10],0.07 ± 0.29 Log10
same,Reduction vs. Virus Control (%),[2]; [11],36.904%
same,Reduction vs. Virus Control (Log10± SD),[2]; [11],0.20 ± 0.20 Log10
same,Reduction vs. Virus Control (%),[2]; [12],20.567%
same,Reduction vs. Virus Control (Log10± SD),[2]; [12],0.10 ± 0.10 Log10
same,Reduction vs. Virus Control (%),[2]; [13],99.932%
same,Reduction vs. Virus Control (Log10± SD),[2]; [13],3.17 ± 0.12 Log10
same,Reduction vs. Virus Control (%),[2]; [14],20.567%
same,Reduction vs. Virus Control (Log10± SD),[2]; [14],0.10 ± 0.00 Log10
same,Reduction vs. Virus Control (%),[2]; [15],99.979%
same,Reduction vs. Virus Control (Log10± SD),[2]; [15],3.67 ± 0.21 Log10
same,Reduction vs. Virus Control (%),[2]; [16],>99.999%
same,Reduction vs. Virus Control (Log10± SD),[2]; [16],5.07 ± 0.25 Log10
same,Reduction vs. Virus Control (%),[2]; [17],99.990%
same,Reduction vs. Virus Control (Log10± SD),[2]; [17],4.00 ± 0.10 Log10
same,Reduction vs. Virus Control (%),[2]; [18],>99.999%
same,Reduction vs. Virus Control (Log10± SD),[2]; [18],5.83 ± 0.12 Log10
same,Reduction vs. Virus Control (%),[2]; [19],53.584%
same,Reduction vs. Virus Control (Log10± SD),[2]; [19],0.33 ± 0.21 Log10
same,Reduction vs. Virus Control (%),[2]; [20],41.566%
same,Reduction vs. Virus Control (Log10± SD),[2]; [20],0.23 ± 0.06 Log10
same,Reduction vs. Virus Control (%),[2]; [21],0.000%
same,Reduction vs. Virus Control (Log10± SD),[2]; [21],0.00 ± 0.36 Log10
same,Reduction vs. Virus Control (%),[2]; [22],49.881%
same,Reduction vs. Virus Control (Log10± SD),[2]; [22],0.30 ± 0.17 Log10
same,Reduction vs. Virus Control (%),[2]; [23],99.767%
same,Reduction vs. Virus Control (Log10± SD),[2]; [23],2.63 ± 0.15 Log10
same,Reduction vs. Virus Control (%),[2]; [24],65.855%
same,Reduction vs. Virus Control (Log10± SD),[2]; [24],0.47 ±0.21 Log10
same,Reduction vs. Virus Control (%),[2]; [25],99.998%
same,Reduction vs. Virus Control (Log10± SD),[2]; [25],4.63 ± 0.31 Log10
same,Reduction vs. Virus Control (%),[2]; [26],99.980%
same,Reduction vs. Virus Control (Log10± SD),[2]; [26],3.70 ± 0.26 Log10
same,Reduction vs. Virus Control (%),[2]; [27],99.998%
same,Reduction vs. Virus Control (Log10± SD),[2]; [27],4.60 ± 0.10 Log10
same,Reduction vs. Virus Control (%),[2]; [28],99.998%
same,Reduction vs. Virus Control (Log10± SD),[2]; [28],4.60 ± 0.10 Log10
same,Reduction vs. Virus Control (%),[2]; [29],20.567%
same,Reduction vs. Virus Control (Log10± SD),[2]; [29],0.10 ± 0.20 Log10
same,Reduction vs. Virus Control (%),[2]; [30],7.388%
same,Reduction vs. Virus Control (Log10± SD),[2]; [30],0.03 ± 0.06 Log10
same,Reduction vs. Virus Control (%),[2]; [31],20.567%
same,Reduction vs. Virus Control (Log10± SD),[2]; [31],0.10 ± 0.10 Log10
same,Reduction vs. Virus Control (%),[2]; [32],53.584%
same,Reduction vs. Virus Control (Log10± SD),[2]; [32],0.33 ± 0.12 Log10
same,Reduction vs. Virus Control (%),[2]; [33],99.369%
same,Reduction vs. Virus Control (Log10± SD),[2]; [33],2.20 ± 0.10 Log10
same,Reduction vs. Virus Control (%),[2]; [34],99.979%
same,Reduction vs. Virus Control (Log10± SD),[2]; [34],3.67 ± 0.23 Log10
same,reduction in virus infectivity,"[2]; 1 to 30 mg/mL, inoculums 10^4, 10^5 and 10^6 pfu/mL, 10 to 15 minutes exposure",> 99.9%
same,reduction in virus infectivity,"[2]; 10^4 pfu/mL viral inoculum, 10 to 30 mg/mL, 10 to 15 min incubation",> 99.999%
same,SARS-CoV-2 inactivated,"[2]; >10 mg/mL, 10^4 pfu/mL, within as little as 1 minute of exposure, 16 hours post-infection",> 99.9%
same,reduced infectivity,"[2]; Vero E6, 10^6 pfu/mL, incubation 15 to 30 minutes, 10 to 30 mg/mL",> 99.999%
same,reduction of infectivity,[2]; after 1 minute of exposure to the virus,> 99.9%
same,virucidal effect,[2]; exposure to virus for 30 seconds,no detectable virucidal effect
same,viral copies (qPCR) in nasal swabs at Day 7,[3],dose dependent decrease
same,EC50,"[4]; added 1 hour post-infection, Vero cells, MOI 0.05, CPE by MTT after 4 days",400 µg/mL
same,EC50,"[4]; added 1 hour pre-infection, Vero cells, MOI 0.05, CPE by MTT after 4 days",420 µg/mL
same,EC50,"[4]; pre- and post-infection assays, read-out: EC50",25 µM and 24 µM
same,"TCID50 (log10), CTC (Cytotoxicity Control)",MRC-5 cells,1.50 log10
same,"CPE in four replicates, CTC (Cytotoxicity Control)",MRC-5 cells; dilution (-Log10) -2,0000
same,"CPE in four replicates, CTC (Cytotoxicity Control)",MRC-5 cells; dilution (-Log10) -3,0000
same,"CPE in four replicates, CTC (Cytotoxicity Control)",MRC-5 cells; dilution (-Log10) -4,0000
same,"binding/infection of Vero E6 cells by spike-pseudotyped lentivirus (GFP-positive cells, FACS)",[5],potently inhibited
same,"CPE in four replicates, Test","[6]; 60 seconds exposure, dilution (-Log10) -6",0000
same,"CPE in four replicates, Test","[6]; 60 seconds exposure, dilution (-Log10) -7",0000
same,Log10 Reduction,[6]; 60 seconds exposure,0.75 log10
same,Percent Reduction,[6]; 60 seconds exposure,82.22%
same,"TCID50 (log10), Test",[6]; 60 seconds exposure,5.50 log10
same,"CPE in four replicates, Test","[6]; 60 minutes exposure, dilution (-Log10) -5",+0+0
same,"CPE in four replicates, Test","[6]; 60 minutes exposure, dilution (-Log10) -7",0000
same,Log10 Reduction,[6]; 60 minutes exposure,0.75 log10
same,Percent Reduction,[6]; 60 minutes exposure,82.22%
same,"TCID50 (log10), Test",[6]; 60 minutes exposure,5.25 log10
same,"EC50, Best Fit Value",[7]; Post Treatment,107 µg/mL
same,"EC90, Best Fit Value",[7]; Post Treatment,1159 µg/mL
same,"EC50, Best Fit Value",[7]; PreTreatment,45 µg/mL
same,"EC90, Best Fit Value",[7]; PreTreatment,180 µg/mL
same,EC50,[8],1.83 µM
same,"TCID50 (log10), CTC (Cytotoxicity Control)",Vero cells,1.50 log10
same,"CPE in four replicates, CTC (Cytotoxicity Control)",Vero cells; dilution (-Log10) -2,0000
same,"CPE in four replicates, CTC (Cytotoxicity Control)",Vero cells; dilution (-Log10) -3,0000
same,"CPE in four replicates, CTC (Cytotoxicity Control)",Vero cells; dilution (-Log10) -4,0000
